Data: ChEMBL document CHEMBL1201862, “PubChem BioAssay data set” (2004)
Activity calls are given as the source filed them.

What was measured:
[1] = target: T1, Carboxy-terminal domain RNA polymerase II polypeptide A small phosphatase 1 (Homo sapiens, UniProt Q9GZU7); assay: CTDSP1 inhibitors, concentration-response, biochemical, absorbance readout, ultra-high-throughput screen actives (AID 540297); assay type: functional
T1 sequence (Q9GZU7 whole entry): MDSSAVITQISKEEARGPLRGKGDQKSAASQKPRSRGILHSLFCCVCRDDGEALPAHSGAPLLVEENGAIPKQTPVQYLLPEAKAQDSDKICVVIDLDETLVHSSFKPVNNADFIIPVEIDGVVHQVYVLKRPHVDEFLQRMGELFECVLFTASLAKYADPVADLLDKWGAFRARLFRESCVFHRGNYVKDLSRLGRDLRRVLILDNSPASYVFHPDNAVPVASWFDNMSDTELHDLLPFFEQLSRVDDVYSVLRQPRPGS

[2] = target: T2, Beta-adrenergic receptor kinase 1 (Homo sapiens, UniProt P25098); assay: blockers of aptamer binding to GRK2 – biochemical, flow cytometry beads, FAM-aptamer, powder set 1, dose response (AID 588720)
T2 sequence (P25098 whole entry): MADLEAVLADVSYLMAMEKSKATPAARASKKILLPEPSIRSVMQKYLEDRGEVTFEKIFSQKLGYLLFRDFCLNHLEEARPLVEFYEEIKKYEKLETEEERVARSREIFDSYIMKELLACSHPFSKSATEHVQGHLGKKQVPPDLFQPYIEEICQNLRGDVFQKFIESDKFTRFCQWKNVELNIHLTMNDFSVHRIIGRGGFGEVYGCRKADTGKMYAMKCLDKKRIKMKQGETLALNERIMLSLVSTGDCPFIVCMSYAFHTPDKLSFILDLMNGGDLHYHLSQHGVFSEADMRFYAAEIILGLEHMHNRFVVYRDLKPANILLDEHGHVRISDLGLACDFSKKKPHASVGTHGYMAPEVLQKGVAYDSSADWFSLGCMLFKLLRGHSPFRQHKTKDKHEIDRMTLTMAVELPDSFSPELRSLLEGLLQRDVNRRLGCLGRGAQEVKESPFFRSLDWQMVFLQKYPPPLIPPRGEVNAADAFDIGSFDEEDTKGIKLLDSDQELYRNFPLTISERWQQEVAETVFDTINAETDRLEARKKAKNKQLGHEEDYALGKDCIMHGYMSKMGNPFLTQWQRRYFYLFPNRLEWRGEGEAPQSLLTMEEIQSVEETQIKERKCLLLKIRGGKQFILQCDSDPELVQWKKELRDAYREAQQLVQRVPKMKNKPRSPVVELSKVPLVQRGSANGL

cells [3] = assay type: functional, cell-based
cells [4] = assay type: functional, cell-based; remark: listed apart in the source
[5] = target: T2, Beta-adrenergic receptor kinase 1; assay: aptamer displacement from bead-bound GRK2 – biochemical, cherry pick 1, bead flow cytometry, dose response (AID 504500)
[6] = target: Peroxisome proliferator-activated receptor gamma/Nuclear receptor coactivator 2 (Homo sapiens, UniProt P37231); assay type: functional;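 also: agonist potency for raising coactivator recruitment to the receptor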
[7] = target: Peroxisome proliferator-activated receptor gamma/Nuclear receptor coactivator 3 (Homo sapiens, UniProt P37231); assay type: functional;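 also: agonist potency for raising coactivator recruitment to the receptor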
[8] = target: T3, Endoribonuclease toxin MazF (Escherichia coli K-12, UniProt P0AE70); assay: substrate-only fluorescence increase artefacts – biochemical, single-stranded RNase substrate, counter-screen for MazEF activator project, dose response (AID 588502); assay type: functional
Streptococcus = assay: GAS UMAA2166 growth inhibition – luminescence, BacTiterGlo, counter-screen for streptokinase expression inhibitor project, dose response (AID 1915); assay type: functional, organism-based;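 also: potency for reduction of bacterial viability or growth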
[9] = target: Peroxisome proliferator-activated receptor gamma/Nuclear receptor coactivator 1 (Homo sapiens, UniProt P37231); assay type: functional;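 also: agonist potency as compounds enhance coactivator SRC-1 recruitment to PPARgamma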
[10] = target: T3, Endoribonuclease toxin MazF; assay: activation of MazEF endoribonuclease cleavage – biochemical, fluorescence, single-stranded RNA substrate, uHTS hits, dose response (AID 588481); assay type: functional
[11] = test system: Streptococcus sp. 'group A'; assay: Streptococcus pyogenes SK(-)GAS viability under kanamycin – luminescence, BacTiterGlo, confirmation, counter-screen for streptokinase expression inhibitor project, dose response (AID 1900); assay type: functional, organism-based
INS1 = assay: INS-1E survival protection against cytokine death – cell-based, luminescence, retest, dose response (AID 449756); assay type: functional; conditions: Rattus norvegicus;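 also: cell death triggered by IL-1 beta plus TNF-alpha plus IFN-gamma mixture; protective hits raise ATP signal compared with cytokine alone wells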
[12] = NIH-3T3 fibroblast cytotoxicity, dose response, cytotoxicity control, cell-based, fluorescence, Alamar Blue, secondary assay (AID 2327); assay type: functional;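 also: NIH-3T3 mouse fibroblasts cultured with fluconazole at 8 µg/mL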
BJ [13] = assay: cells; assay type: functional, cell-based; conditions: Homo sapiens
CAAX prenyl protease 1 = CAAX prenyl protease 1 (Saccharomyces cerevisiae S288c, UniProt P47154); assay: yeast CAAX protease Ste24 inhibition – biochemical, S. cerevisiae, plate reader, cherry-pick, dose response (AID 488815)
[14] = fluconazole-exposed Candida albicans growth modulators – fluorescence, retest, confirmation (AID 2467); assay type: functional, cell-based
CAAX prenyl protease 2 = CAAX prenyl protease 2 (Homo sapiens, UniProt Q9Y256); assay: inhibition of Ras-converting CAAX protease Rce1 – biochemical, yeast membranes, quenched-peptide fluorescence, cherry-pick, dose response (AID 588849)
BJ [15] = assay: BJ-TERT fibroblast viability loss – cell-based, RAS-independent, luminescence, dose response (AID 1933); assay type: functional; conditions: Homo sapiens
[16] = HEK-293T viability loss after treatment – luminescence, T-cell screen hits, cytotoxicity control for TCR NF-kB inhibitor project, dose response (AID 489026); assay type: functional, cell-based;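 also: cells exposed to compound about 14 hours before the viability readout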
Trypsin = Trypsin (Sus scrofa, UniProt P00761); assay: trypsin protease activity blockade – biochemical, quenched peptide fluorescence, cherry-pick, selectivity assay for Rce1 protease inhibitor project, dose response (AID 488789)
BJ [17] = assay: BJ-TERT-LT-ST fibroblast viability loss – cell-based, RAS-independent, luminescence, dose response (AID 1935); assay type: functional; conditions: Homo sapiens;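 also: BJ fibroblasts immortalized with TERT plus LT and ST oncogenes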
[18] = DRD fibroblast viability loss – cell-based, non-viral oncogenic, luminescence, dose response (AID 1934); assay type: functional; conditions: Homo sapiens
Vero [19] = assay: cells; assay type: functional; conditions: Chlorocebus sabaeus
Vero [20] = assay: cells; assay type: functional, cell-based; conditions: Chlorocebus sabaeus
[21] = target: Voltage-gated inwardly rectifying potassium channel KCNH2 (Homo sapiens, UniProt Q12809); conditions: Potency;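 also: confirmatory quantitative high-throughput screen measuring inhibition of hERG channel activity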
Cytochrome P450 2C9 = Cytochrome P450 2C9 (Homo sapiens, UniProt P11712)
Cytochrome P450 2C9, sequence (P11712 whole entry): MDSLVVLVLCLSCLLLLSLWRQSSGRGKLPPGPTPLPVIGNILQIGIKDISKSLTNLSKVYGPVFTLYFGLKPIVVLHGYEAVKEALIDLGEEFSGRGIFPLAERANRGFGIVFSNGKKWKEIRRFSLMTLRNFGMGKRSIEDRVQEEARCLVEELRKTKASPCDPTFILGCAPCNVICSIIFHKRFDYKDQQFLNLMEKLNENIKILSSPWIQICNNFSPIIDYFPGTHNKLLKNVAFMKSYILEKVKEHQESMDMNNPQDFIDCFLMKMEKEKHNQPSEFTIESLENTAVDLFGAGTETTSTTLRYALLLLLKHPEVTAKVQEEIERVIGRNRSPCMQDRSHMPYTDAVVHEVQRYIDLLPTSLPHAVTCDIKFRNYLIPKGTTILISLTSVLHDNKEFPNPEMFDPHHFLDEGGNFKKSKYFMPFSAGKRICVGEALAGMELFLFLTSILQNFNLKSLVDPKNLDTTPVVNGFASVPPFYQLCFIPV

T3 sequence (P0AE70 whole entry): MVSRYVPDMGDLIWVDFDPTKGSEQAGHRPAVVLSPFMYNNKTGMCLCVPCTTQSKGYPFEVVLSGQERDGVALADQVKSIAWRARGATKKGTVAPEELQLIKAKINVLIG
CAAX prenyl protease 1, sequence (P47154 whole entry): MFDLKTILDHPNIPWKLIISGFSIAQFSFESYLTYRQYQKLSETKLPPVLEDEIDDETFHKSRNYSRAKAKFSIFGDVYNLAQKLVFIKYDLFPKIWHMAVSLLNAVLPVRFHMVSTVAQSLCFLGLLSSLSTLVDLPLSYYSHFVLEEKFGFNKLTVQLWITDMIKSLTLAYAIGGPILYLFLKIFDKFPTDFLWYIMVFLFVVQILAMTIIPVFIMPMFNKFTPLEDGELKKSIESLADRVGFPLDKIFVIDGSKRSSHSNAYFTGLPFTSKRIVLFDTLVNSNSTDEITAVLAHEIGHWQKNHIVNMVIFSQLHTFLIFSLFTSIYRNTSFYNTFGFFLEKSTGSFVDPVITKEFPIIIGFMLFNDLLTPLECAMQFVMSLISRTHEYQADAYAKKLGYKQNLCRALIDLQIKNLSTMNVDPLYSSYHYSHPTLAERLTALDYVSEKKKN
Trypsin, sequence (P00761 whole entry): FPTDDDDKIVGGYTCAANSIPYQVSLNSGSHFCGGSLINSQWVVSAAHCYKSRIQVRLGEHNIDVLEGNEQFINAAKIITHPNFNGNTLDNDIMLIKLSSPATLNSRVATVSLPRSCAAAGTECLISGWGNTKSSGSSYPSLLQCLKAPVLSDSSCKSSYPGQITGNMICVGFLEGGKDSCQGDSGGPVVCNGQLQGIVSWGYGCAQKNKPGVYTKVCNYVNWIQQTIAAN
CAAX prenyl protease 2, sequence (Q9Y256 whole entry): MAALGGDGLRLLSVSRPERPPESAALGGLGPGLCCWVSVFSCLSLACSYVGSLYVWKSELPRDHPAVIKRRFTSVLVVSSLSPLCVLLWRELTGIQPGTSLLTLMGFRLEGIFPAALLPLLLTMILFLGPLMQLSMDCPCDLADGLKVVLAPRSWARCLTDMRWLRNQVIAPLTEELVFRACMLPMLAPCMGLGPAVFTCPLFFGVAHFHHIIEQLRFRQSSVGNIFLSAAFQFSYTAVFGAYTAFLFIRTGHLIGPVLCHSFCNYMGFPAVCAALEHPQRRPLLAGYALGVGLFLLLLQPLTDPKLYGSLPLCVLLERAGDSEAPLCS
Peroxisome proliferator-activated receptor gamma/Nuclear receptor coactivator 1, sequence (P37231 whole entry): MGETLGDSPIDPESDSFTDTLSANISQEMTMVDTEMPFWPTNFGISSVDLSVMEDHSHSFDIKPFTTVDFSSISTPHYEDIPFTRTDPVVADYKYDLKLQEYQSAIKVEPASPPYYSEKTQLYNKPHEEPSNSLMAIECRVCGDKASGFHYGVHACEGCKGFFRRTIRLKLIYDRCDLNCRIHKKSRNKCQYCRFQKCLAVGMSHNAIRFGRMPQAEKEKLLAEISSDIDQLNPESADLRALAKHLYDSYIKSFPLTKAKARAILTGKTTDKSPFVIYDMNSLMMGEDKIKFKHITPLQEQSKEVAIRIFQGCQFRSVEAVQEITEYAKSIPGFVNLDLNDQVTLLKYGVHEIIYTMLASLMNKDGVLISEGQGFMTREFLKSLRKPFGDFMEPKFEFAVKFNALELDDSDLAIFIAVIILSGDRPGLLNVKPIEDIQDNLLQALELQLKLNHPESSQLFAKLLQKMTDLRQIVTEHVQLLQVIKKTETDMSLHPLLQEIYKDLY
Peroxisome proliferator-activated receptor gamma/Nuclear receptor coactivator 1, sequence (Q15788 whole entry, further chain): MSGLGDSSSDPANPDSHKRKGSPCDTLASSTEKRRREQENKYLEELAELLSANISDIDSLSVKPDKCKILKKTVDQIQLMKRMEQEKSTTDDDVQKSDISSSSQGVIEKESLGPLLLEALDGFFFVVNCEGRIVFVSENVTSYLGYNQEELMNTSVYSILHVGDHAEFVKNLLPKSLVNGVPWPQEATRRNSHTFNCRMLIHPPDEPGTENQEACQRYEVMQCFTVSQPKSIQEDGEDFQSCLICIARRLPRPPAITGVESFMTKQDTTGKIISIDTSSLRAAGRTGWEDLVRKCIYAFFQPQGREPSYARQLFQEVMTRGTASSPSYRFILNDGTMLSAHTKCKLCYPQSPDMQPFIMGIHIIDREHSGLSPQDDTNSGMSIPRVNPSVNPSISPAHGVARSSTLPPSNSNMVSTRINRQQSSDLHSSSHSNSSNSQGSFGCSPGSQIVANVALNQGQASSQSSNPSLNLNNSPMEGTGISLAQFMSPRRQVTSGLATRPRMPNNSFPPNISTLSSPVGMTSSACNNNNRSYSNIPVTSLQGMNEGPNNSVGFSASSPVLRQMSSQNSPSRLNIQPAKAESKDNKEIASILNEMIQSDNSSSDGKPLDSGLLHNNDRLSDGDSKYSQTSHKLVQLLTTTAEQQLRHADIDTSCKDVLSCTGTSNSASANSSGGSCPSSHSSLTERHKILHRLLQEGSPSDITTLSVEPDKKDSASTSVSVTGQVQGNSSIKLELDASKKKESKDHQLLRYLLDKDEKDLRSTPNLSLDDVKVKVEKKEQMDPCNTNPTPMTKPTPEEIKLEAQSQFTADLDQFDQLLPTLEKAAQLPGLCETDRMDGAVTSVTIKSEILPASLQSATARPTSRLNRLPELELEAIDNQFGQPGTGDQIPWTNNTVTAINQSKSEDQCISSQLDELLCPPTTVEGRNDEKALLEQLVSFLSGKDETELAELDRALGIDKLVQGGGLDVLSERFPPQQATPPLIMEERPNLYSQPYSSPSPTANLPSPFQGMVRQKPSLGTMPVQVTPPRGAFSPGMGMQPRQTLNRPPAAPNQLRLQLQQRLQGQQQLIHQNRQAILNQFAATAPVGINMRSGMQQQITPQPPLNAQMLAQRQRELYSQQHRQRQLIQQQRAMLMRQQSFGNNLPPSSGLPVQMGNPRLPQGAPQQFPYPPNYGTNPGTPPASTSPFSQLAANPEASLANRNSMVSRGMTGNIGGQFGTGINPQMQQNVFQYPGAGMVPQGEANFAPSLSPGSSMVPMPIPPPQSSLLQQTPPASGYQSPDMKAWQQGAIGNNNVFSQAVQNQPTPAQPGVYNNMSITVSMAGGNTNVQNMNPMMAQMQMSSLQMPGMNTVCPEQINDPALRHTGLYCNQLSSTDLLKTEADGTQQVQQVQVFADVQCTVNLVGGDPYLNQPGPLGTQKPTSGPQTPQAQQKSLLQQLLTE
Voltage-gated inwardly rectifying potassium channel KCNH2, sequence (Q12809 whole entry): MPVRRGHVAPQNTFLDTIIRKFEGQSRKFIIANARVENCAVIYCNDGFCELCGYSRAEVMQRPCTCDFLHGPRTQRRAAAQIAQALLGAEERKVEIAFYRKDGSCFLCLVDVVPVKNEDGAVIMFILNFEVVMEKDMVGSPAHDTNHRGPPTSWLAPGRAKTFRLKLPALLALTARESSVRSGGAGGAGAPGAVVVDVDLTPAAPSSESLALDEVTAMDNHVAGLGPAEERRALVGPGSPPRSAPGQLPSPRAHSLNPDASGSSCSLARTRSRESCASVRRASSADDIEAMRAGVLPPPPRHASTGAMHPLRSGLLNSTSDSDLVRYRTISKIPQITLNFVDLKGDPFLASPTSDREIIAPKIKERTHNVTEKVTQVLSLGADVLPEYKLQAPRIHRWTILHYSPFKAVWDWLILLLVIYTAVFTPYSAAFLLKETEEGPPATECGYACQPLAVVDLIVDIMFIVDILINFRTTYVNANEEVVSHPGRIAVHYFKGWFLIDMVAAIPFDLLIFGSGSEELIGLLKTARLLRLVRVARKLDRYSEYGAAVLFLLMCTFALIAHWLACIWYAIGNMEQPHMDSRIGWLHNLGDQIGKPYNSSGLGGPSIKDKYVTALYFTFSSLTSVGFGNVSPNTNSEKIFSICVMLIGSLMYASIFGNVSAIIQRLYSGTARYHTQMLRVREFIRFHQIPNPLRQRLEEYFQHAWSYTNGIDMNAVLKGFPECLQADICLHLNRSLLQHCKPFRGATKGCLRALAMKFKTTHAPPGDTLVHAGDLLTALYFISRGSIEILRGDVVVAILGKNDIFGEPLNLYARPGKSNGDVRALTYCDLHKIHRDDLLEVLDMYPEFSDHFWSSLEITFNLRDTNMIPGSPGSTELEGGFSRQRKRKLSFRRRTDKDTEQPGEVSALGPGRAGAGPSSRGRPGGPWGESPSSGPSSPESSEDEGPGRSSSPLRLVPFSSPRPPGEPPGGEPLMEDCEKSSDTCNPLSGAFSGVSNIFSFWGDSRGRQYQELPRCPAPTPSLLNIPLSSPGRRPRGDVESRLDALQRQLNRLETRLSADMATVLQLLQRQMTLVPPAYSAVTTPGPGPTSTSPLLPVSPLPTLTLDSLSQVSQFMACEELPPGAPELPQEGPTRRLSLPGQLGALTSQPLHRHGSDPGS

O=C(CSc1nc2ccccc2c(=O)n1-c1ccccc1)NC(=O)CN1CCCC1=O
IC50 [1]: 8.75 µM (active) | EC50 [2]: 2.96 µM (active) | EC50 (cells [3]): > 350 µM (not active) | EC50 (cells [4]): > 350 µM (not active) | EC50 [5]: 9.42 µM (active)

N#Cc1ccc(-c2ccccc2)nc1SCC(=O)c1cc2ccccc2oc1=O
EC50 [6]: 13.7 µM (not active) | EC50 [7]: 16.4 µM (not active) | EC50 [8]: > 99 µM (inactive) | EC50 (Streptococcus): 2.22 µM (active) | EC50 [9]: 15.5 µM (not active) | EC50 [10]: > 99 µM (inactive) | EC50 [11]: 0.862 µM (active)

Cc1ccc(-c2cc(-c3ccc(C)cc3)[n+](-c3ccccc3)c(-c3ccc(C)cc3)c2)cc1.[O-][Cl+3]([O-])([O-])[O-]
AC50 (INS1): 0.382 µM (active) | EC50 [12]: 18.4 µM (inconclusive) | EC50 (BJ [13]): 2.12 µM (active) | AC50 (CAAX prenyl protease 1): 13.7 µM (active) | EC50 [14]: 0.178 µM (active) | AC50 (CAAX prenyl protease 2): 20.7 µM (active) | EC50 (BJ [15]): 0.689 µM (active) | IC50 [16]: 20.3 µM (inactive) | AC50 (Trypsin): 23.8 µM (active) | EC50 (BJ [17]): 1.33 µM (inconclusive) | EC50 [18]: 1.05 µM (active)

COc1ccc(S(=O)(=O)N2CCOC23CCN(C(=O)c2ccc(Cl)cc2Cl)CC3)cc1
CC50 (Vero [19]): > 25 µM (active) | IC50 (Vero [20]): > 25 µM (active)

CC(C)COC(=O)OCN1C(=O)CN(CCN2CC(=O)N(COC(=O)OCC(C)C)C(=O)C2)CC1=O [SOBUZOXANE]
AC50 [21]: 35.5 µM (inconclusive) | AC50 (Cytochrome P450 2C9): 39.8 µM (inconclusive)
